# In patent publication US20220340633A1 (Adepthera LLC, priority 2016, published 2022):
# Entries after “also recorded” stand apart in the source; their conditions may differ.
# Key:
# CLR/RAMP2 receptor = target: T1, CLR/RAMP2 receptor (Homo sapiens, UniProt O60895+Q16602); assay: CLR/RAMP2 arrestin receptor activation assay (agonist); assay type: cell-based
# T1 construct: host or cells: CHO-K1 cells
# Description: (§1) Using a receptor activation assay, the dose-dependent stimulatory response of peptide agonists of the present invention on a CLR/RAMP1 receptor, a CLR/RAMP2, or a CLR/RAMP3 receptor complex was determined. A cell line carrying the recombinant CLR/RAMP1, CLR/RAMP2, or a CLR/RAMP3 receptor was employed in the assay. Peptide agonist activities were tested, in duplicate, at 10 different concentrations, starting with 1.0 μM and serially diluted 3-fold, in DMSO. […] The CLR/RAMP1 cAMP, CLR/RAMP2 arrestin assays, and CLR/RAMP3 cAMP (DiscoveRx, Fremont, Calif.) were used.
# CLR/RAMP1 receptor = CLR/RAMP1 receptor (Homo sapiens, UniProt O60894+Q16602); assay: CLR/RAMP1 cAMP receptor activation assay (agonist); assay type: cell-based; design: host or cells: 1321N1 cells; details: for Emax: 1321-N1, read-out: CLR/RAMP 1 Max Activity % of positive control, 1321N1 cells, % of positive control (β-CGRP)
# Description: as §1
# CLR/RAMP3 receptor [1] = target: T2, CLR/RAMP3 receptor (Homo sapiens, UniProt O60896+Q16602); assay: CLR/RAMP3 cAMP receptor activation assay (agonist); assay type: cell-based; design: host or cells: CHO-K1 cells; details: CHO-K1, read-out: CLR/RAMP 3 Max Activity % of positive control
# Description: as §1
# [2] = tested on: primary human lymphatic endothelia cells (HLEC); assay: HLEC survival in medium with 0.1% FBS, MTS assay; details: 30, 100, and 300 nM, 72 hrs
# Description: (§2) The cells were cultured for 72 hrs, and cell viability was assayed with the MTS assay (Promega).
# [3] = tested on: primary human lymphatic endothelia cells (HLEC); assay: HLEC proliferation in medium with 2% FBS, MTS assay; details: 30, 100, and 300 nM, 72 hrs
# Description: as §2
# CLR/RAMP3 receptor [4] = target: T2, CLR/RAMP3 receptor; details: antagonist mode
# Description: as §1
# For the analysis of antagonistic activity, the synthetic analogs were pre-incubated with the cells before adding the reference ligand at its EC80.
# T2 sequence (Q16602 23-461): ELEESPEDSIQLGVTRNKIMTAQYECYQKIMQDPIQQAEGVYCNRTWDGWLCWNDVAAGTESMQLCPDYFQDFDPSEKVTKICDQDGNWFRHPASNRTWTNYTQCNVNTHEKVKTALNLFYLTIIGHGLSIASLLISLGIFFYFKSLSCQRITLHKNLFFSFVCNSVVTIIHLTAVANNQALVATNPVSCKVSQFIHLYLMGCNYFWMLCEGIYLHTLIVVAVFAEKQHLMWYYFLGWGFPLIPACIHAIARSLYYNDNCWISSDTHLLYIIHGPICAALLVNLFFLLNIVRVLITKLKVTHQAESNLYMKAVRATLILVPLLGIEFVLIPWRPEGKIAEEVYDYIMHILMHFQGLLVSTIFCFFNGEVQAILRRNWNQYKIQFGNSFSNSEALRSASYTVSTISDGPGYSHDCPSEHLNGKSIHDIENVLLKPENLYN
# T2 sequence (O60896 24-148): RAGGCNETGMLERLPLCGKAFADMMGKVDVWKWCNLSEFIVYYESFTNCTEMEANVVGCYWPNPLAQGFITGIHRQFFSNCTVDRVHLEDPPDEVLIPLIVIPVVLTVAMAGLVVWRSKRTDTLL
# T1 sequence (Q16602 23-461): as the sequence (Q16602 23-461) above
# T1 sequence (O60895 43-175): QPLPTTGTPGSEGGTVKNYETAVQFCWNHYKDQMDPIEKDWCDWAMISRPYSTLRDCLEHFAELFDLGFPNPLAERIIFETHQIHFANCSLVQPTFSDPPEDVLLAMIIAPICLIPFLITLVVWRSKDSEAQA
# CLR/RAMP1 receptor, sequence (Q16602 23-461): as the sequence (Q16602 23-461) above
# CLR/RAMP1 receptor, sequence (O60894 27-148): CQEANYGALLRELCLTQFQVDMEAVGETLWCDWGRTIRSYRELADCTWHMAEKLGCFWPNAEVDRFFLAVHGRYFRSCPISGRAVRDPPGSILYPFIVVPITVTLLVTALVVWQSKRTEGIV
SMILES,"EC50 (CLR/RAMP2 receptor; CHO-K1 cells stably expressing CLR/RAMP2, arrestin, positive control ADM, read-out: CLR/RAMP 2 EC50)","CLR/RAMP 2 Max Activity % of positive control (CLR/RAMP2 receptor; CHO-K1 cells, % of positive control (ADM))",Emax (CLR/RAMP1 receptor),"EC50 (CLR/RAMP1 receptor; 1321N1 cells stably expressing CLR/RAMP1, cAMP, positive control β-CGRP, read-out: CLR/RAMP 1 EC50)",Emax (CLR/RAMP3 receptor [1]),HLEC survival (in words) [2],HLEC proliferation (in words) [3],"Emax (CLR/RAMP2 receptor; CHO-K1, read-out: CLR/RAMP 2 Max Activity % of positive control, CHO-K1 cells, % of positive control (ADM))",CLR/RAMP3 Max Activity % of positive control (CLR/RAMP3 receptor [4])
CCCCCCCCCCCCCCCC(=O)NCCCC[C@H](NC(=O)COCCOCCN)C(=O)NCC(=O)N[C@H]1CSSC[C@@H](C(=O)N[C@H](C(=O)N[C@H](C(=O)N[C@@H](CCC(N)=O)C(=O)N[C@@H](CCCCN)C(=O)N[C@@H](CC(C)C)C(=O)N[C@@H](C)C(=O)N[C@@H](Cc2c[nH]cn2)C(=O)N[C@@H](CCC(N)=O)C(=O)N[C@H](C(=O)N[C@@H](Cc2ccc(O)cc2)C(=O)N[C@@H](CCC(N)=O)C(=O)N[C@@H](Cc2ccccc2)C(=O)N[C@H](C(=O)N[C@@H](CC(=O)O)C(=O)N[C@@H](CCCCN)C(=O)N[C@@H](CC(=O)O)C(=O)N[C@@H](CCCCN)C(=O)N[C@@H](CC(=O)O)C(=O)N[C@@H](CC(N)=O)C(=O)N[C@@H](CO)C(=O)N[C@@H](C)C(=O)N2CCC[C@H]2C(=O)N[C@H](C(=O)N[C@@H](CC(=O)O)C(=O)N2CCC[C@H]2C(=O)N[C@@H](CO)C(=O)N[C@@H](CO)C(=O)N2CCC[C@H]2C(=O)N[C@@H](Cc2c[nH]cn2)C(=O)N[C@@H](CO)C(=O)N[C@@H](Cc2ccc(O)cc2)C(N)=O)C(C)C)[C@@H](C)O)[C@@H](C)CC)C(C)C)[C@@H](C)O)NC(=O)[C@H]([C@@H](C)O)NC(=O)CNC(=O)[C@H](Cc2ccccc2)NC(=O)[C@H](CCCNC(=N)N)NC1=O [SEQ ID NO: 28],0.5 nM,143%,54%,0.3 nM,117%,dose-dependently stimulated; also recorded: significantly promote,dose-dependently stimulated; also recorded: significantly promote,–,–
CCCCCCCCCCCCCCCC(=O)NCCCC[C@H](NC(=O)COCCOCCN)C(=O)NCC(=O)N[C@H]1CSSC[C@@H](C(=O)N[C@H](C(=O)N[C@H](C(=O)N[C@@H](CCC(N)=O)C(=O)N[C@@H](CCCCN)C(=O)N[C@@H](CC(C)C)C(=O)N[C@@H](C)C(=O)N[C@@H](Cc2c[nH]cn2)C(=O)N[C@@H](CCC(N)=O)C(=O)N[C@H](C(=O)N[C@@H](Cc2ccc(O)cc2)C(=O)N[C@@H](CCC(N)=O)C(=O)N[C@@H](Cc2ccccc2)C(=O)N[C@H](C(=O)N[C@@H](CC(=O)O)C(=O)N[C@@H](CCCCN)C(=O)N[C@@H](CC(=O)O)C(=O)N[C@@H](CCCCN)C(=O)N[C@@H](CC(=O)O)C(=O)N[C@@H](CC(N)=O)C(=O)N[C@H](C(=O)N[C@@H](C)C(=O)N2CCC[C@H]2C(=O)N[C@@H](CCCNC(=N)N)C(=O)N[C@@H](CO)C(=O)N[C@@H](CCCCN)C(=O)N[C@H](C(=O)N[C@@H](CO)C(=O)N2CCC[C@H]2C(=O)N[C@@H](CCC(N)=O)C(=O)NCC(=O)N[C@@H](Cc2ccc(O)cc2)C(N)=O)[C@@H](C)CC)C(C)C)[C@@H](C)O)[C@@H](C)CC)C(C)C)[C@@H](C)O)NC(=O)[C@H]([C@@H](C)O)NC(=O)CNC(=O)[C@H](Cc2ccccc2)NC(=O)[C@H](CCCNC(=N)N)NC1=O [SEQ ID NO: 69],–,–,70%,–,127%,dose-dependently stimulated; also recorded: significantly promote,dose-dependently stimulated; also recorded: significantly promote,147%,–
CCCCCCCCCCCCCCCC(=O)N[C@@H](CCCCN)C(=O)N[C@H](C(=O)N[C@@H](CCC(N)=O)C(=O)N[C@@H](CCCCN)C(=O)N[C@@H](CC(C)C)C(=O)N[C@@H](C)C(=O)N[C@@H](Cc1c[nH]cn1)C(=O)N[C@@H](CCC(N)=O)C(=O)N[C@@H](CO)C(=O)N[C@@H](C)C(=O)N1CCC[C@H]1C(=O)N[C@H](C(=O)N[C@@H](CC(=O)O)C(=O)N1CCC[C@H]1C(=O)N[C@@H](CO)C(=O)N[C@@H](CO)C(=O)N1CCC[C@H]1C(=O)N[C@@H](Cc1c[nH]cn1)C(=O)N[C@@H](CO)C(=O)N[C@@H](Cc1ccc(O)cc1)C(N)=O)C(C)C)C(C)C [SEQ ID NO: 124],–,–,–,–,–,–,–,–,102%
